B1: ACE human recombinant: Angiotensin Converting Enzyme Human recombinant (Biotest 929-ZN) (protein, UniProt P12821 30-1306, looked up)
Angiotensin-converting enzyme: LDPGLQPGNFSADEAGAQLFAQSYNSSAEQVLFQSVAASWAHDTNITAENARRQEEAALLSQEFAEAWGQKAKELYEPIWQNFTDPQLRRIIGAVRTLGSANLPLAKRQQYNALLSNMSRIYSTAKVCLPNKTATCWSLDPDLTNILASSRSYAMLLFAWEGWHNAAGIPLKPLYEDFTALSNEAYKQDGFTDTGAYWRSWYNSPTFEDDLEHLYQQLEPLYLNLHAFVRRALHRRYGDRYINLRGPIPAHLLGDMWAQSWENIYDMVVPFPDKPNLDVTSTMLQQGWNATHMFRVAEEFFTSLELSPMPPEFWEGSMLEKPADGREVVCHASAWDFYNRKDFRIKQCTRVTMDQLSTVHHEMGHIQYYLQYKDLPVSLRRGANPGFHEAIGDVLALSVSTPEHLHKIGLLDRVTNDTESDINYLLKMALEKIAFLPFGYLVDQWRWGVFSGRTPPSRYNFDWWYLRTKYQGICPPVTRNETHFDAGAKFHVPNVTPYIRYFVSFVLQFQFHEALCKEAGYEGPLHQCDIYRSTKAGAKLRKVLQAGSSRPWQEVLKDMVGLDALDAQPLLKYFQPVTQWLQEQNQQNGEVLGWPEYQWHPPLPDNYPEGIDLVTDEAEASKFVEEYDRTSQVVWNEYAEANWNYNTNITTETSKILLQKNMQIANHTLKYGTQARKFDVNQLQNTTIKRIIKKVQDLERAALPAQELEEYNKILLDMETTYSVATVCHPNGSCLQLEPDLTNVMATSRKYEDLLWAWEGWRDKAGRAILQFYPKYVELINQAARLNGYVDAGDSWRSMYETPSLEQDLERLFQELQPLYLNLHAYVRRALHRHYGAQHINLEGPIPAHLLGNMWAQTWSNIYDLVVPFPSAPSMDTTEAMLKQGWTPRRMFKEADDFFTSLGLLPVPPEFWNKSMLEKPTDGREVVCHASAWDFYNGKDFRIKQCTTVNLEDLVVAHHEMGHIQYFMQYKDLPVALREGANPGFHEAIGDVLALSVSTPKHLHSLNLLSSEGGSDEHDINFLMKMALDKIAFIPFSYLVDQWRWRVFDGSITKENYNQEWWSLRLKYQGLCPPVPRTQGDFDPGAKFHIPSSVPYIRYFVSFIIQFQFHEALCQAAGHTGPLHKCDIYQSKEAGQRLATAMKLGFSRPWPEAMQLITGQPNMSASAMLSYFKPLLDWLRTENELHGEKLGWPQYNWTPNSARSEGPLPDSGRVSFLGLDLDAQQARVGQWLLLFLGIALLVATLGLSQRLFSIRHRSLHRHSHGPQFGSEVELRHS

Key:
[1] = system: astrocytes cultures of human brain cells, derived from astrocytoma, U-87 MG; assay: In-vitro effect of anti-gliotic agents on astrocytes survival (cell counting); type: cell-based; conditions: 48 h
Description: (§1) Cell culture—Astrocytes cultures of human brain cells, derived from astrocytoma, U-87 MG (ATCC® HTB-14™, American Type Culture Collection, Rockville, Md., USA) were cultured in growth medium [10% Fetal Bovine Serum (FBS) and 1% Penicillin-Streptomycin solution (PS) in Minimum Essential Medium (MEM)]. […] The cell suspension (5×10^5 cells/well) was seeded into a 6-well plate (500 μl/well) containing 1.5 ml/well of assay medium, incubated for 24±1 hours at […], 5% CO2, and then examined microscopically. Following, at 90% cell confluence, the plates were treated according to the following groups:
(§2) The anti-gliotic agents were added as follows: Chondroitinase ABC (0.2 U/ml), Collagenase (2 mg, 50 μl), β-D-Xyloside (2.5 mM, 20 μl), MMPs-3 (0.5 μg, 20 μl), Anti TGFβ 1,2&3 (10 μg, 20 μl), Mitomycin C (50 μg, 25 μl), ACE human recombinant (0.5 μg, 25 μl) and Anti-Nogo A (5 U, 25 μl).

[2] = system: astrocytes cultures of human brain cells, derived from astrocytoma, U-87 MG; assay: In-vitro effect of anti-gliotic agents on 35S-GAG accumulation in activated astrocytes; type: cell-based; conditions: 48 h
Description: as §1, §2
Astrocytes activation causes glycosaminoglycans (GAGs) accumulation in cultures, both intracellularly, pericellularly and extracellularly. Therefore, GAGs can serve as a tracer for either formation or elimination of the scar barrier.

[3] = astrocytes activated with Bt2-cAMP 1 mM + theophylline 0.25 mM plus the anti-gliotic agent
[4] = activated with Bt2-cAMP + theophylline plus anti-gliotic agent
[5] = activated with Bt2-cAMP + theophylline plus anti-gliotic agent, values multiplied 6 times (normalized to vital cell survivors)

Molecule | % of cells (cell percentage in astrocyte cultures relative to untreated cultures) [1, 3] [%] | % of Isolated 35S-GAGs (relative to the theophylline control) [2, 4] [%] | Isolated 35S-GAGs Average + SD [2, 5] | % of cells (cell percentage in astrocyte cultures relative to untreated cultures) ([1]; activator(s) only, no anti-gliotic agent, Bt2-cAMP 1 mM, theophylline 0.25 mM) [%] | Isolated 35S-GAGs Average + SD ([2]; activator(s) only, theophylline well multiplied 6 times (normalized to vital cell survivors))
O=[N+]([O-])c1ccc(O[C@@H]2OC[C@@H](O)[C@H](O)[C@H]2O)cc1 [β-D-Xyloside, 4-Nitrophenyl β-D-xylopyranoside, reference compound] | 54.7 | 78.5 | 61,016 + 21,506 | – | –
Chondroitinase ABC | 33.1 | 5.5 | 4,299 + 939 | – | –
Collagenase | 39.1 | 66.1 | 51,371 + 10,556 | – | –
CCCC(=O)Nc1ncnc2c1ncn2[C@@H]1O[C@@H]2COP(=O)([O-])O[C@H]2[C@H]1OC(=O)CCC.[Na+] [Bt2-cAMP, N6,2′-O-Dibutyryladenosine 3′,5′-cyclic monophosphate, sodium salt, reference compound] | – | – | – | 32.8 | 34,872 + 2,946
MMPs-3: MMP-3-Matrix Metalloproteinase, human Stromlysin STR1 (Sigma SRP 7783) | 23.2 | 82.3 | 63,941 + 11,374 | – | –
B1 | 70.4 | 22.9 | 17,814 + 2,201 | – | –
